Patent US12351555B2, “Process for synthesizing apremilast” (AMGEN INC., priority 2021, dated 2025)

Assay: Moisture sorption analysis (DVS) of crystal Form B of apremilast
Type: physicochemical
Source text: FIG. 3B depicts a representative DVS plot of crystal Form B of apremilast.
The crystalline apremilast formed in the disclosed processes can be any crystalline form. Various crystalline apremilast forms are described in detail in PCT Publication No. WO 2009/120167, the disclosure of which is incorporated by reference in its entirety. In various embodiments, the crystalline apremilast formed by the processes disclosed herein can be Form A, Form B, or Form F. In some cases, the crystalline apremilast is Form B. Form B may be characterized by X-ray powder diffraction analysis. In certain embodiments, Form B is characterized by XRPD peaks located at one, two, three, four, five, six, seven, eight, nine, ten, eleven or twelve of the following approximate positions: 10.1, 12.4, 13.5, 15.7, 16.3, 18.1, 20.7, 22.5, 24.7, 26.2, 26.9, 29.1 degrees 2θ. […] In certain embodiments, Form B may be characterized by thermal analysis. In certain embodiments, Form B is characterized by a DSC plot comprising an endothermic event with an onset temperature of about 154° C. In certain embodiments, Form B is characterized by a TGA plot comprising a mass loss of less than about 1%, e.g., about 0.25%, of the total mass of the sample upon heating from about 25° C. to about 140° C. […] In certain embodiments, Form B is anhydrous. In certain embodiments, Form B is unsolvated. In certain embodiments, Form B may be characterized by moisture sorption analysis. […] In certain embodiments, mass gained upon adsorption is lost when the RH is decreased back to about 0% RH.

stability with respect to humidity: stable with respect to humidity
XRPD pattern following the adsorption/desorption analysis (after adsorption/desorption analysis): substantially unchanged
hygroscopicity (moisture sorption analysis): substantially nonhygroscopic
Compound: CCOc1cc(C(CS(C)(=O)=O)N2C(=O)c3cccc(NC(C)=O)c3C2=O)ccc1OC (single isomer, unassigned; (+)) [Form B, (+)-2-[1-(3-ethoxy-4-methoxyphenyl)-2-methylsulfonylethyl]-4-acetylaminoisoindoline-1,3-dione]
